According to US8545876B1, “Modified drugs for use in liposomal nanoparticles” (The University of British Columbia, priority 2008, dated 2013):
≈ marks a conversion by molar mass, not a printed value.

Tests used:
[1] = Chemical (hydrolytic) stability in buffered aqueous solutions; assay type: physicochemical; details: 24 hour incubation in pH 7.4 buffer, 37° C.
[2] = Stability in mouse plasma; assay type: in vitro ADME; details: 24 hour incubation in mouse plasma, 37° C.
Method: (§1) The chemical stability of the docetaxel derivatives was determined in aqueous solutions at different pH values and temperatures, and in biological media (mouse plasma). Aliquots of the docetaxel derivatives in acetonitrile were mixed with buffered citrate/HEPES (10 mM/10 mM) solutions at pH 4.0 and 7.5, or in mouse plasma in 1 mL glass HPLC sample vials sealed with Teflon-lined caps (final volume 0.25 ml, final docetaxel derivative concentration 50 µg/ml). Drug stability was determined 1, 4 and 24 hrs after incubation at 37° C. by UPLC-UV. At the indicated time points, a 3-fold excess of methanol/0.1% TFA was added to the sample. Citrate/HEPES buffered samples were analyzed by UHPLC as described above. For plasma samples, proteins precipitated by the addition of methanol/0.1% TFA pelleted by centrifugation at 14,000×g and supernatants were analyzed for the drug derivatives. Heparanized mouse plasma was diluted to 50% with 100 mM sodium-phosphate buffer to keep the pH constant throughout the experiment.
(§2) To be suitable for formulation in LN, derivatives must be stable at pH 4 (the pH present inside the LN carrier). In addition, prodrug derivatives should readily form the active drug under physiological conditions (e.g., at pH 7.4 and/or in the presence of endogenous enzymes) once released from the LN. […] TD1-3 and TD7 were selected for loading into LN and testing of such LN for drug release in vitro.

[3] = In vitro release of docetaxel derivatives from LN in mouse plasma; assay type: in vitro ADME; details: 37° C., same prodrug-to-lipid ratio
Method: In vitro release of docetaxel derivatives from LN was assessed in mouse plasma. Drug retention was determined by comparison of the initial prodrug-to-lipid ratio with the prodrug-to-lipid ratios found at different time points. […] LN formulations were mixed with mouse plasma at a final lipid concentration of 0.75 mg/ml, followed by incubation at 37° C. At various time points, aliquots were taken and run over Sephadex G-50 spin columns to remove the unentrapped prodrug (Pick, Arch. Biochem. Biophys., 212:186-194 (1981)). The derivative and lipid concentrations in the eluates were determined by UHPLC and liquid scintillation counting, respectively.

[4] = Kinetic aqueous solubility of docetaxel derivatives in acetate buffer; details: for solubility: kinetic from dmso stock
Method: An aliquot was diluted 10-fold with 10 mM acetate buffer (pH 5) and the pH was checked and re-adjusted as necessary to reach pH 5. Alternatively, 10 mg of each compound was weighed into a glass vial, and 2 mL of 10 mM acetate buffer (pH 5) was added to the compound, followed by sonication of the suspension for minutes. The precipitate was then removed using Microcon MY100 filters (MW cut-off 100,000 Da) and the filtrate analyzed by UPLC-UV for drug content. The measured solubilities are kinetic solubilities determined under non-equilibrium conditions.

[5] = Chemical (hydrolytic) stability in buffered aqueous solutions; assay type: physicochemical; details: 24 hour incubation in pH 4 buffer, 37° C.
Method: as §1, §2

[6] = 10 mM acetate buffer with 10% (v/v) ethanol, pH 5, aqueous with cosolvent or surfactant or cyclodextrin
[7] = 10 mM acetate buffer, pH 5, aqueous buffer

Structure (SMILES)	Prodrug levels (% remaining), pH 7.4 [1] [%]	Prodrug levels (% remaining), Plasma [2]	in vitro retention / release rate in DSPC/chol LN relative to TD1 [3]	solubility [4, 6] [µg/mL]	solubility [4, 7] [µg/mL]	Prodrug levels (% remaining), pH 4 [5] [%]	Solub. in 10 mM acetate pH 5 ([4]; pH 5, no ethanol, kinetic solubility)	solubility ([4]; pH 5, aqueous buffer) [µg/mL]	Prodrug levels (% remaining), Plasma ([2]; listed as TD-9) [%]	solubility ([4]; pH 5, aqueous with cosolvent or surfactant or cyclodextrin) [µg/mL]
CC(=O)O[C@@]12CO[C@@H]1C[C@H](O)[C@@]1(C)C(=O)[C@H](O)C3=C(C)[C@@H](OC(=O)[C@H](OC(=O)CN4CCN(C)CC4)[C@@H](NC(=O)OC(C)(C)C)c4ccccc4)C[C@@](O)([C@@H](OC(=O)c4ccccc4)C12)C3(C)C (stereo partly shown) [TD2, N-methyl-piperazinyl acetic acid ester]	59	31%	released at a slightly faster rate	25000 (≈ 26400 µM)	2000 (≈ 2110 µM)	99	–	–	–	–
CC(=O)O[C@@]12CO[C@@H]1C[C@H](O)[C@@]1(C)C(=O)[C@H](O)C3=C(C)[C@@H](OC(=O)[C@H](OC(=O)CCCCN4CCN(C)CC4)[C@@H](NC(=O)OC(C)(C)C)c4ccccc4)C[C@@](O)([C@@H](OC(=O)c4ccccc4)C12)C3(C)C (stereo partly shown) [TD3, N-methyl-piperazinyl pentanoic acid ester]	69	29%	released at a slightly faster rate	4100 (≈ 4140 µM)	2500 (≈ 2520 µM)	99	–	–	–	–
CC(=O)O[C@@]12CO[C@@H]1C[C@H](O)[C@@]1(C)C(=O)[C@H](O)C3=C(C)[C@@H](OC(=O)[C@H](OC(=O)CCCN4CCOCC4)[C@@H](NC(=O)OC(C)(C)C)c4ccccc4)C[C@@](O)([C@@H](OC(=O)c4ccccc4)C12)C3(C)C (stereo partly shown) [TD4, Morpholino butanoic acid ester]	92	64%	–	–	120 (≈ 125 µM)	98	extremely low solubility	–	–	–
CC(=O)O[C@@]12CO[C@@H]1C[C@H](O)[C@@]1(C)C(=O)[C@H](O)C3=C(C)[C@@H](OC(=O)[C@H](OC(=O)CN4CCOCC4)[C@@H](NC(=O)OC(C)(C)C)c4ccccc4)C[C@@](O)([C@@H](OC(=O)c4ccccc4)C12)C3(C)C (stereo partly shown) [TD5, Morpholino acetic acid ester]	64	45%	–	300 (≈ 321 µM)	140 (≈ 150 µM)	81	–	–	–	–
CC(=O)O[C@@]12CO[C@@H]1C[C@H](O)[C@@]1(C)C(=O)[C@H](O)C3=C(C)[C@@H](OC(=O)[C@H](OC(=O)CCN4CCOCC4)[C@@H](NC(=O)OC(C)(C)C)c4ccccc4)C[C@@](O)([C@@H](OC(=O)c4ccccc4)C12)C3(C)C (stereo partly shown) [TD6, Morpholino propionic acid ester]	18	0%	–	1500 (≈ 1580 µM)	480 (≈ 506 µM)	68	–	–	–	–
CC(=O)O[C@@]12CO[C@@H]1C[C@H](O)[C@@]1(C)C(=O)[C@H](O)C3=C(C)[C@@H](OC(=O)[C@H](OC(=O)CN4CCCCC4)[C@@H](NC(=O)OC(C)(C)C)c4ccccc4)C[C@@](O)([C@@H](OC(=O)c4ccccc4)C12)C3(C)C (stereo partly shown) [TD8, Piperidinyl acetic acid ester]	36	4%	–	–	–	78	–	500 (≈ 536 µM)	–	–
CC(=O)O[C@@]12CO[C@@H]1C[C@H](O)[C@@]1(C)C(=O)[C@H](O)C3=C(C)[C@@H](OC(=O)[C@H](OC(=O)CCCCN4CCCCC4)[C@@H](NC(=O)OC(C)(C)C)c4ccccc4)C[C@@](O)([C@@H](OC(=O)c4ccccc4)C12)C3(C)C (stereo partly shown) [TD9, Piperidinyl pentanoic acid ester]	65	no effect	–	–	–	99	–	1000 (≈ 1030 µM)	60	2300 (≈ 2360 µM)
